Target: Purified bacterial β-glucuronidases (Purified GUS) (UniProt P05804)
Assay type: biochemical
Conditions: read-out: Purified GUS Orignial IC50

Chain of Purified bacterial β-glucuronidases (Purified GUS) (P05804 whole entry): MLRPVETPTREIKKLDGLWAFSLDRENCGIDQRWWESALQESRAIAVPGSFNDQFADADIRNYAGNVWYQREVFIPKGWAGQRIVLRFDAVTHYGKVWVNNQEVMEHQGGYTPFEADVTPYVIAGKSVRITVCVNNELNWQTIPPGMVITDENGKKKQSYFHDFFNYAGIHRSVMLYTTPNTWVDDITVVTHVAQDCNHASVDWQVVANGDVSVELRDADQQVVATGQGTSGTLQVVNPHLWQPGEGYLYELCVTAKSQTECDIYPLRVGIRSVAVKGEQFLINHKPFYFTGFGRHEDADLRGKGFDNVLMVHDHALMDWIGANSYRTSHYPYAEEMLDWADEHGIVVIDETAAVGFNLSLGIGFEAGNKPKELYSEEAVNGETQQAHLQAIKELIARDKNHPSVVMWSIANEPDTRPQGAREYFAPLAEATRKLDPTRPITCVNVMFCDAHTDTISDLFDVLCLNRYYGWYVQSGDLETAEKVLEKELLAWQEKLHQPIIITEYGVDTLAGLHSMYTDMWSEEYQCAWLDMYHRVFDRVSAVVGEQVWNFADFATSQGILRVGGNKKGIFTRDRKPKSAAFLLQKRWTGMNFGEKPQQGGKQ

## Cc1cc(C)c2[nH]c(=O)c(CN(CCO)C(=O)Cc3ccccc3Br)cc2c1 [Ex. 4, 2-(2-bromophenyl)-N-[(6,8-dimethyl-2-oxo-1H-quinolin-3-yl)methyl]-N-(2-hydroxyethyl)acetamide]
  IC50: 920 nM

## Cc1cc(C)c2[nH]c(=O)c(CN(CCO)C(=O)Cc3ccccc3Cl)cc2c1 [Ex. 8, 2-(2-chlorophenyl)-N-[(6,8-dimethyl-2-oxo-1H-quinolin-3-yl)methyl]-N-(2-hydroxyethyl)acetamide]
  IC50: 570 nM

## COc1ccc(Br)c(CC(=O)N(CCO)Cc2cc3cc(C)cc(C)c3[nH]c2=O)c1 [Ex. 12, 2-(2-bromo-5-methoxy-phenyl)-N-[(6,8-dimethyl-2-oxo-1H-quinolin-3-yl)methyl]-N-(2-hydroxyethyl)acetamide]
  IC50: 580 nM

— patent US20220125778A1 (priority 2019, published 2022)
